Laboratory results reported in article PMC5201116, “Bioactive Flavonoids and Catechols as Hif1 and Nrf2 Protein Stabilizers - Implications for Parkinson’s Disease” (Aging and Disease, 2016).
Like-named read-outs stand apart in the source and are kept apart here.

What was measured:
[1] = tested on: primary neuronal cultures treated with 5 mM HCA; experiment: Glutathione depletion (HCA) model, MTT viability; assay type: cell-based, rat; conditions: for concentration at which neuroprotection begins: glutathione depletion model, Fig. 5; for EC50: Rattus norvegicus, results not shown, read-out: EC50 of protection in glutathione depletion model
Protocol: Primary neuronal cultures were prepared from the forebrains of Sprague-Dawley rat embryos (E17) and plated on 96 well plates at a 10^6 cells/ml density. After 24 hours, cells were rinsed with warm PBS and then placed in minimum Essential Medium (MEM; Life Technologies, Grand Island, NY) containing 5 mM HCA in the presence of a compound of interest at varied concentrations. Cells were incubated for 24 h or longer to see 90% cell death in HCA treated controls. Viability was assessed by the MTT (4,5-dimethylthiazol-2-yl)-2,5-diphenyltetrazolium bromide) assay.

[2] = tested on: Neh2-luc reporter (SH-SY5Y cell line); experiment: Neh2-luc reporter assay; assay type: cell-based; conditions: for EC50: Neh2-luc; for fold induction at 10 µM / Neh2-luc fold activation: 3 h incubation, at 10 µM; for fold induction at 10 µM: read-out: Neh2-luc fold activation; for effect of NAC on Neh2-luc reporter activation: simultaneous addition of 0.5 mM NAC, results not shown
Protocol: (§1) SH-SY5Y cell lines stably expressing HIF1 ODD-luc or Neh2-luc reporters were grown in the DMEM/F12 supplemented with GlutaMAX (Thermo Fisher Scientific) containing 10% FBS, 100 U/ml penicillin, and 100 μg/ml streptomycin and plated into 384-well white flat-bottom plates at 7,000 cell/well in 30 µl serum and incubated overnight at 37°C, 5% CO2. The next day compounds were added to a final concentration of 10 µM and the plates were incubated for 3 hours at 37°C. Reporter activation after 3 h incubation with the studied compound was compared to that for ciclopirox (HIF1 ODD-luc reporter) or TBHQ (Neh2-luc reporter), taken as 100%. Luciferase reporter activity was measured with a SteadyGlo reagent from Promega providing stable reading for 1 h.
(§2) Cells were plated at the density of 25,000 cell per well using a WellMate multichannel dispenser from Matrix (Thermo Fisher Scientific, Waltham, MA) and grown overnight on DMEM/F12+GlutaMAX (100 µl per well). Then an inhibitor was added, and the plates were incubated for a fixed time interval; the medium was removed, cells lysed, and luciferase activity was measured on a SpectraMax M5e platereader (Molecular Devices, Sunnyvale, CA) with BrightGlo™ reagent (Promega, Madison, WI). The reporter activation was normalized to the background luminescence. The effect of 0.5 mM N-acetylcysteine (NAC) was studied by simultaneous addition of 5 µL of 10 mM stock of NAC in water and 2 µL of 50x stock solutions of a flavonoid in DMSO.

[3] = tested on: HRE-luciferase reporter (HT22 hippocampal cell line); experiment: HRE-luc reporter assay; assay type: cell-based; conditions: for fold induction at 10 µM: Mus musculus, HT-22, 3 h, read-out: HRE-luc fold activation; for fold induction at 10 µM / HRE-luc fold activation: at 10 µM
Description: A promoter-reporter construct that contained 68 bp of a known hypoxia and HIF-1 regulated gene, enolase, containing a wild type hypoxia response element (HRE, 5’-RCTGT-3’), is a widely used approach for screening for HIF activators of different mechanism of action. A cell-based assay with HRE-luciferase reporter system is based on transfected immortalized hippocampal cell line (HT22) and allows screening for a broad spectrum of compounds that include: activators of HIF transcription; activators of HIF binding to HRE; and effectors of HIF protein stability (PHD inhibitors, pVHL & proteasome inhibitors). The assay was performed the same way as for HIF ODD-luc reporter except the cells were plated at the density of 10,000 cell per well and incubated overnight.

[4] = Iron binding constant, calcein displacement assay; assay type: physicochemical; conditions: calcein displacement
Description: Calcein displacement assay in the presence of varied concentrations of flavonoids and catechols has been used. Calcein release from its complex with iron was monitored by fluorescence as described in [26].

[5] = tested on: HIF1 ODD-luc reporter (SH-SY5Y cell line); experiment: HIF1 ODD-luc reporter assay; assay type: cell-based; conditions: for fold induction at 10 µM / EC50: Homo sapiens, SH-SY5Y; for fold induction at 10 µM: 3 h, read-out: ODD-luc fold activation; for fold induction at 10 µM / ODD-luc fold activation: 3 h incubation, at 10 µM
Protocol: as §1, §2

[6] = Non-enzymatic ferricyanide reduction rate constant; assay type: physicochemical; conditions: 1 mM ferricyanide, pH 7.0
Protocol: The rate of ferricyanide reduction by individual flavonoids was measured spectrophotometrically at 420 nm with the fixed concentration of ferricyanide (1 mM) and varied concentrations of a flavonoid in Potassium-phosphate buffer, pH 7.0. The rate constant for direct ferricyanide reduction was calculated from the slope of the dependence reaction rate vs flavonoid concentration and used as a measure of flavonoid non-specific reducing power.

[7] = parameters: method as in PMID 17112238; conditions: cited from earlier work
[8] = molecular target: T1, Rabbit Reticulocyte 15-LOX-1 (Oryctolagus cuniculus, UniProt P12530); experiment: Rabbit LOX 12/15 (rabbit reticulocyte 15-LOX-1) activity; assay type: biochemical; conditions: compounds at 25 µM, Fig. 4A
T1 sequence (P12530 1-663): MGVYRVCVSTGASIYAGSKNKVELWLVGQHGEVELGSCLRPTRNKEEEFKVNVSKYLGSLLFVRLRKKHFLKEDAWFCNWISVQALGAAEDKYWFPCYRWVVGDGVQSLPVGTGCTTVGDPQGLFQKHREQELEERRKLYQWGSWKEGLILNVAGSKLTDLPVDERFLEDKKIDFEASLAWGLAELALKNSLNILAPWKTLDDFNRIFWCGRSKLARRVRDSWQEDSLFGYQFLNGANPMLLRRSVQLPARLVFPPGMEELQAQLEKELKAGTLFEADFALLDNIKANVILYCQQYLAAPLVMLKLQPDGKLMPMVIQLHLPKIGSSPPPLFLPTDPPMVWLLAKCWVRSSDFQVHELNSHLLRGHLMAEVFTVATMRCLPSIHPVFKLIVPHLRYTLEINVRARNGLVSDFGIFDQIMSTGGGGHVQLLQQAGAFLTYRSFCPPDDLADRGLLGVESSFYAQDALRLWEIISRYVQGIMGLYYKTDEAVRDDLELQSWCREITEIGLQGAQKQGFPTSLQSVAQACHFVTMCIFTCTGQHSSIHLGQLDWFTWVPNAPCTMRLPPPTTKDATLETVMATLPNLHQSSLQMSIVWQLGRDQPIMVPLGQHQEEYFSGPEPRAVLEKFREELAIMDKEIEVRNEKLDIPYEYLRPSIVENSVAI
Protocol: The activity of the purified enzyme was measured in the end-point in vitro assay of arachidonic acid oxidation following the formation of fluorescent diphenyl-1-pyrenylphosphine oxide. DMSO was used as a control.

[9] = tested on: rotenone-induced hemiparkinsonian rats; parameters: method as in PMID 23357119; conditions: 25-75 mg/kg twice a day for 4 days; cited from earlier work
HIF PHD2 = conditions: cited from earlier work
[10] = tested on: VEGF mRNA in immature primary cortical neurons; experiment: VEGF mRNA induction, real-time RT-PCR; assay type: cell-based; conditions: overnight pretreatment, Fig. 4B
Protocol: For VEGF gene expression studies, total RNA was isolated from immature primary cortical neurons, pretreated overnight with the indicated concentration of a bioactive compound, using the NucleoSpin RNA II kit (Macherey-Nagel, Bethlehem, PA) according to manufacturer’s protocol. Real-time PCR was performed in triplicate as a duplex reaction using a VEGF (Mm01281449_m1) gene expression assay with a 6-carboxyfluorescein-labeled probe, and a β actin gene expression assay with a VIC-labeled probe (Applied Biosystems, Foster City, CA), so that gene amplification could be normalized to β actin. These experiments were performed using a 7500 Real-time PCR System (Applied Biosystems) using standard PCR protocol and amplification conditions.

HIF prolyl hydroxylase = molecular target: HIF prolyl hydroxylase; parameters: method as in PMID 3011801; conditions: enzyme in vitro assay; read-out: enzyme inhibition constant; cited from earlier work

In the case of O=c1c(O)c(-c2ccc(O)c(O)c2)oc2cc(O)ccc12 [compound 10, Fisetin], the “concentration at which neuroprotection begins” value [1] is reported as 2.5 µM, the EC50 ([2]; Homo sapiens, SH-SY5Y) is reported as 2 µM and the fold induction at 10 µM ([2]; Homo sapiens, SH-SY5Y) is reported as 23 ± 3. For the same molecule, the “effect of NAC on Neh2-luc reporter activation” value [2] was “no effect”, the fold induction at 10 µM [3] was 2 ± 0.2 and the “Iron complex Diss. Const” value [4] was 2.7 ± 0.3 µM. For the same molecule, the fold induction at 10 µM [5] was 1.6 ± 0.2, the “FC red Rate Const” value [6] was 301000 ± 34000 M⁻¹ s⁻¹ and the EHOMO [7] was -8.69 eV. The LOX inhibition [8] was “equipotent as LOX inhibitors”.
With O=c1c(O)c(-c2ccc(O)c(O)c2)oc2cc(O)cc(O)c12 [compound 11, Quercetin] the EC50 ([2]; Homo sapiens, SH-SY5Y) was 2 µM, the fold induction at 10 µM ([2]; Homo sapiens, SH-SY5Y) was 24 ± 3 and the “effect of NAC on Neh2-luc reporter activation” value [2] was “no effect”. The fold induction at 10 µM [3] was 2 ± 0.2, the “Iron complex Diss. Const” value [4] was 2.7 ± 0.3 µM and the EC50 [5] was roughly 2.5 µM. The fold induction at 10 µM [5] was 1.5 ± 0.2, the “FC red Rate Const” value [6] was 366000 ± 39000 M⁻¹ s⁻¹ and the EHOMO [7] was -8.72 eV. The “neuroprotection in rotenone model” value [9] was “neuroprotective” and the Ki (HIF PHD2; read-out: HIF PHD2 apparent inhibition constant) was 10 µM.
With O=c1cc(-c2ccccc2)oc2cc(O)c(O)c(O)c12 [compound 17, Baicalein] the Neh2-luc fold activation [2] was “Inactive”, the fold induction at 10 µM [3] was 5 ± 0.6 and the “Iron complex Diss. Const” value [4] was 2.5 ± 0.3 µM. The ODD-luc fold activation [5] was “Inactive”, the “FC red Rate Const” value [6] was 25500 ± 3000 M⁻¹ s⁻¹ and the EHOMO [7] was -8.99 eV. For the same molecule, the Ki (HIF PHD2; competitive with α-KG, read-out: PHD2 Ki) was 7 µM.
In the case of O=c1cc(-c2ccc(O)c(O)c2)oc2cc(O)cc(O)c12 [compound 18, Luteolin], the “concentration at which neuroprotection begins” value [1] is reported as 1.2 µM, the EC50 ([2]; Homo sapiens, SH-SY5Y) is reported as 2 µM and the fold induction at 10 µM ([2]; Homo sapiens, SH-SY5Y) is reported as 5 ± 0.6. The fold induction at 10 µM [3] was 2 ± 0.25, the “Iron complex Diss. Const” value [4] was 3.5 ± 0.4 µM and the fold induction at 10 µM [5] was 2.5 ± 0.3. The “FC red Rate Const” value [6] was 130000 ± 15000 M⁻¹ s⁻¹, the EHOMO [7] was -9.09 eV and the LOX inhibition [8] was “equipotent as LOX inhibitors”.
In the case of O=c1cc(-c2ccc(O)c(O)c2)oc2ccccc12 [compound 19, 3’,4’-dihydroxyflavone], the EC50 ([2]; Homo sapiens, SH-SY5Y) is reported as 2 µM, the fold induction at 10 µM ([2]; Homo sapiens, SH-SY5Y) is reported as 15 ± 2 and the “Induction of VEGF mRNA” value [10] is reported as “mild inducers”. For the same molecule, the fold induction at 10 µM [3] was 2 ± 0.25, the “Iron complex Diss. Const” value [4] was 2.5 ± 0.3 µM and the fold induction at 10 µM [5] was 2.5 ± 0.3.
In the case of O=c1c(-c2ccc(O)c(O)c2)coc2cc(O)ccc12 [compound 27, 3’-Hydroxy-daidzein], the “neuroprotection in glutathione depletion model” value [1] is reported as “protective”, the “concentration at which neuroprotection begins” value [1] is reported as 2.5 µM and the EC50 [2] is reported as 5 µM. The Neh2-luc fold activation [2] was 15±2 fold, the Neh2-luc fold activation ([2]; listed as 3’-hydroxydaidzein) was “active” and the HRE-luc fold activation [3] was 2.5±0.3 fold. The “Iron complex Diss. Const” value [4] was 3.5 ± 0.4 µM and the ODD-luc fold activation [5] was 2.5±0.3 fold.
For N[C@@H](Cc1ccc(O)c(O)c1)C(=O)O [compound 29, 3,4-Dihydroxy-L-phenylalanine, reference compound], the EC50 [1] was 6 µM, the EC50 ([2]; Homo sapiens, SH-SY5Y) was 20 µM and the Neh2-luc fold activation [2] was “Inactive”. For the same molecule, the fold induction at 10 µM [3] was 1.7 ± 0.2, the “Iron complex Diss. Const” value [4] was 2.5 ± 0.3 µM and the EC50 [5] was 15 µM. For the same molecule, the fold induction at 10 µM [5] was 2 ± 0.25.
With C[C@@](Cc1ccc(O)c(O)c1)(NN)C(=O)O [compound 31, N-Aminomethyldopa, reference compound] the EC50 [1] was greater than 20 µM, the EC50 ([2]; Homo sapiens, SH-SY5Y) was 20 µM and the Neh2-luc fold activation [2] was “Inactive”. For the same molecule, the HRE-luc fold activation [3] was “Inactive”, the “Iron complex Diss. Const” value [4] was 2.5 ± 0.3 µM and the ODD-luc fold activation [5] was “Inactive”.
For CCOC(=O)c1ccc(O)c(O)c1 [compound 32, Ethyl 3,4-dihydroxybenzoate, reference compound], the Ki (HIF prolyl hydroxylase) is given as 5 µM, the EC50 ([2]; Homo sapiens, SH-SY5Y) is given as 20 µM and the Neh2-luc fold activation [2] is given as “Inactive”. The “HRE-luc: concentration above which active” value [3] was “Active above 20 µM”, the “Iron complex Diss. Const” value [4] was 2.5 ± 0.3 µM and the “ODD-luc: concentration above which active” value [5] was “Active above 50 µM”. The “ODD-luc: concentration above which active” value ([5]; listed as DHB) was “above 50 µM”.
